SMILES strings stand for the structures.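 Following 48 hours of exposure in 96-well plates, responses at five concentrations were used to interpolate endpoints linearly. Definition used: TGI = concentration required for complete inhibition of growth.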 Where only a bound is given, the exact number is not on record here.

One test concerns HOP-92 NSCLC. Briefly: growth of human tumour cells (NCI), 48 h.
The molecule `CCOC(=O)c1cnc2oc3ccc(O)cc3c2c1C` registered a TGI above 100 µM.

Consider `CN(C)CCCSc1nc2ccccc2[nH]1`, for which the TGI is above 100 µM.

In a further test the test system is K-562 leukemia. Briefly: growth of human tumour cells (NCI), 48 h.
The molecule `Cc1ccc(S(=O)(=O)n2cc(-c3cc(C(F)(F)F)ccn3)c3cc(Br)ccc32)cc1` gave a TGI above 100 µM.

The molecule `Cc1cc2ccccc2n2c1nc1ccccc12` registered a TGI above 100 µM.

The molecule `CC1C2(C)OC(=N)C(C#N)(C(c3ccccc3)O2)C1(C#N)C#N` (stereo not given) yielded a TGI above 100 µM.

Regarding `[N-]=[N+]=Nc1ccccc1C(=O)N1C(=O)c2ccccc2C(=O)N(C(=O)c2ccccc2N=[N+]=[N-])c2ccccc21`, the TGI was above 100 µM.

The molecule `COC1(OC)c2no[n+]([O-])c2CCC1O` (stereo not given) displayed a TGI above 100 µM.

`CN(C)Nc1cc(=O)[nH]c(=O)[nH]1` registered a TGI above 100 µM.

The molecule `Clc1ccc(NCc2nnc(CCCCCCCCc3nnc(CNc4ccc(Cl)cc4)o3)o2)cc1` had a TGI above 100 µM.

For the molecule `O=C(CC(=O)N(C(=O)/C=C\c1ccccc1)c1ccc(Cl)cc1)N1N=C(c2ccccc2)C(N=Nc2cccc([N+](=O)[O-])c2)C1=O` (stereo not given), the TGI came to 68.6 µM.

`Cc1cc(=O)[nH]c(-n2[nH]c(C)c(CCO)c2=O)n1` came in with a TGI above 100 µM.

Consider `COc1ccc(Nc2nnc(-c3nsc4ccccc34)s2)cc1`, for which the TGI was above 100 µM.

`CCOC(=O)c1cnc2oc3ccc(O)cc3c2c1C` returned a TGI above 100 µM.

Consider `CN(C)CCCSc1nc2ccccc2[nH]1`, for which the TGI is above 100 µM.

In the next test the test system is MCF7 breast. Briefly: growth of human tumour cells (NCI), 48 h.
As to `Cc1ccc(S(=O)(=O)n2cc(-c3cc(C(F)(F)F)ccn3)c3cc(Br)ccc32)cc1`, the TGI is 26 µM.

`Cc1cc2ccccc2n2c1nc1ccccc12` had a TGI above 100 µM.

`CC1C2(C)OC(=N)C(C#N)(C(c3ccccc3)O2)C1(C#N)C#N` (stereo not given) returned a TGI of 49.3 µM.

The molecule `[N-]=[N+]=Nc1ccccc1C(=O)N1C(=O)c2ccccc2C(=O)N(C(=O)c2ccccc2N=[N+]=[N-])c2ccccc21` returned a TGI above 100 µM.

In the case of `COC1(OC)c2no[n+]([O-])c2CCC1O` (stereo not given), the TGI is above 100 µM.

`CN(C)Nc1cc(=O)[nH]c(=O)[nH]1`: the TGI is above 100 µM.

In the case of `Clc1ccc(NCc2nnc(CCCCCCCCc3nnc(CNc4ccc(Cl)cc4)o3)o2)cc1`, the TGI is above 100 µM.

Regarding `O=C(CC(=O)N(C(=O)/C=C\c1ccccc1)c1ccc(Cl)cc1)N1N=C(c2ccccc2)C(N=Nc2cccc([N+](=O)[O-])c2)C1=O` (stereo not given), the TGI was determined as 28.4 µM.

The molecule `Cc1cc(=O)[nH]c(-n2[nH]c(C)c(CCO)c2=O)n1` gave a TGI above 100 µM.

Molecule `COc1ccc(Nc2nnc(-c3nsc4ccccc34)s2)cc1` displayed a TGI above 100 µM.

The molecule `CCOC(=O)c1cnc2oc3ccc(O)cc3c2c1C` registered a TGI above 100 µM.

With `CN(C)CCCSc1nc2ccccc2[nH]1`, the TGI is above 100 µM.

Another test has as its system NCI-H460 lung. Briefly: growth of human tumour cells (NCI), 48 h.
In turn, `Cc1ccc(S(=O)(=O)n2cc(-c3cc(C(F)(F)F)ccn3)c3cc(Br)ccc32)cc1` had a TGI above 100 µM.

Turning to `Cc1cc2ccccc2n2c1nc1ccccc12`, the TGI is above 100 µM.

`CC1C2(C)OC(=N)C(C#N)(C(c3ccccc3)O2)C1(C#N)C#N` (stereo not given) returned a TGI of 25.1 µM.

`[N-]=[N+]=Nc1ccccc1C(=O)N1C(=O)c2ccccc2C(=O)N(C(=O)c2ccccc2N=[N+]=[N-])c2ccccc21` showed a TGI above 100 µM.

Molecule `COC1(OC)c2no[n+]([O-])c2CCC1O` (stereo not given) had a TGI above 100 µM.

`CN(C)Nc1cc(=O)[nH]c(=O)[nH]1`: the TGI was above 100 µM.

`Clc1ccc(NCc2nnc(CCCCCCCCc3nnc(CNc4ccc(Cl)cc4)o3)o2)cc1` registered a TGI above 100 µM.

Molecule `O=C(CC(=O)N(C(=O)/C=C\c1ccccc1)c1ccc(Cl)cc1)N1N=C(c2ccccc2)C(N=Nc2cccc([N+](=O)[O-])c2)C1=O` (stereo not given) yielded a TGI of 29.5 µM.

The molecule `Cc1cc(=O)[nH]c(-n2[nH]c(C)c(CCO)c2=O)n1` had a TGI above 100 µM.

`COc1ccc(Nc2nnc(-c3nsc4ccccc34)s2)cc1` yielded a TGI above 65.9 µM.

On to `CCOC(=O)c1cnc2oc3ccc(O)cc3c2c1C`, for which the TGI is above 100 µM.

For `CN(C)CCCSc1nc2ccccc2[nH]1`, the TGI was above 100 µM.

The subject of the next test is NCI-H522 lung. Briefly: growth of human tumour cells (NCI), 48 h.
In the case of `[N-]=[N+]=Nc1ccccc1C(=O)N1C(=O)c2ccccc2C(=O)N(C(=O)c2ccccc2N=[N+]=[N-])c2ccccc21`, the TGI was above 100 µM.

In turn, `COC1(OC)c2no[n+]([O-])c2CCC1O` (stereo not given) came in with a TGI above 100 µM.

The molecule `Clc1ccc(NCc2nnc(CCCCCCCCc3nnc(CNc4ccc(Cl)cc4)o3)o2)cc1` registered a TGI above 100 µM.

The molecule `Cc1cc(=O)[nH]c(-n2[nH]c(C)c(CCO)c2=O)n1` displayed a TGI above 100 µM.

For `CN(C)CCCSc1nc2ccccc2[nH]1`, the TGI was above 100 µM.

In another test the test system is NCI/ADR-RES ovarian. Briefly: growth of human tumour cells (NCI), 48 h.
As for `Cc1ccc(S(=O)(=O)n2cc(-c3cc(C(F)(F)F)ccn3)c3cc(Br)ccc32)cc1`, the TGI was above 100 µM.

Molecule `Cc1cc2ccccc2n2c1nc1ccccc12` gave a TGI above 100 µM.

On to `CC1C2(C)OC(=N)C(C#N)(C(c3ccccc3)O2)C1(C#N)C#N` (stereo not given), for which the TGI was above 100 µM.

With `[N-]=[N+]=Nc1ccccc1C(=O)N1C(=O)c2ccccc2C(=O)N(C(=O)c2ccccc2N=[N+]=[N-])c2ccccc21`, the TGI is above 100 µM.

Take `COC1(OC)c2no[n+]([O-])c2CCC1O` (stereo not given): the TGI was above 100 µM.

In the case of `CN(C)Nc1cc(=O)[nH]c(=O)[nH]1`, the TGI is above 100 µM.

Regarding `Clc1ccc(NCc2nnc(CCCCCCCCc3nnc(CNc4ccc(Cl)cc4)o3)o2)cc1`, the TGI was above 100 µM.

Take `O=C(CC(=O)N(C(=O)/C=C\c1ccccc1)c1ccc(Cl)cc1)N1N=C(c2ccccc2)C(N=Nc2cccc([N+](=O)[O-])c2)C1=O` (stereo not given): the TGI worked out at 22 µM.

`Cc1cc(=O)[nH]c(-n2[nH]c(C)c(CCO)c2=O)n1` gave a TGI above 100 µM.

In the case of `COc1ccc(Nc2nnc(-c3nsc4ccccc34)s2)cc1`, the TGI was above 100 µM.

Molecule `CCOC(=O)c1cnc2oc3ccc(O)cc3c2c1C` gave a TGI above 100 µM.

`CN(C)CCCSc1nc2ccccc2[nH]1` returned a TGI above 100 µM.

These data come from PubChem BioAssay (NCI).
